Experimental data taken from patent US11083724B2, “Rimegepant for CGRP related disorders” (Biohaven Pharmaceutical Holding Company Ltd., priority 2018, dated 2021).

Tested on: patients with migraine
Test: Study 201 (BHV3000-201, NCT03266588): open label long-term safety study, rimegepant 75 mg oral tablet
Format: in vivo, human
Method: Clinical Trial-BHV3000-201: Open Label Safety Study in Acute Treatment of Migraine (ClinicalTrials.gov A phase 2⁄3 clinical study is conducted with about 2000 participants, as follows. The purpose of this study is to evaluate safety and tolerability of BHV3000 (rimegepant). Study Design • Study Type: Interventional (Clinical Trial) • Estimated Enrollment: 2000 participants • Intervention Model: Single Group Assignment • Masking: None (Open Label) • Primary Purpose: Treatment • Official Title: A Multicenter, Open Label Long-Term Safety Study of BHV3000 in the Acute Treatment of Migraine • Actual Study Start Date: Aug. 30, 2017 • Estimated Primary Completion Date: July 2019 • Estimated Study Completion Date: July 2019 Arms and Interventions Outcome Measures Primary Outcome Measures: 1. To assess the safety and tolerability of rimegepant (BHV-3000) by measuring the frequency and severity of adverse events and discontinuations due to adverse events [Time Frame: 52 weeks] Number of subjects with treatment-emergent adverse events as assessed through laboratory tests, ECGs, physical exam findings (safety and tolerability) Secondary Outcome Measures: 1. ALT or […] with total bilirubin>2×ULN [Time Frame: 52 weeks] elevated liver function tests 2. hepatic related adverse events and hepatic related adverse events that lead to discontinuation [Time Frame: 52 weeks] adverse events related to liver Results from the clinical trial described in Example 10 are summarized as follows. […] Patients were allowed to treat migraine attacks of all severities (mild to severe) up to once daily for a full year. The initial results for hepatic safety and tolerability of rimegepant 75 mg in study participants is based upon review of both adverse events and regularly scheduled liver function tests. Interim hepatic data were reviewed by an external and independent panel of liver experts. […] In the aggregate, it was noted that compared to migraine trials with drugs other than rimegepant, there was a very low incidence of overall elevations of liver function test abnormalities in rimegepant treated patients (1.0% incidence of serum ALT or […]). Subjects will continue to participate in Study 201 with additional data analyses to be submitted in the NDA and required 120-day safety updates.

N[C@@H]1c2cccnc2[C@H](OC(=O)N2CCC(n3c(=O)[nH]c4ncccc43)CC2)CC[C@H]1c1cccc(F)c1F [Rimegepant, [(5S,6S,9R)-5-amino-6-(2,3-difluorophenyl)-6,7,8,9-tetrahydro-5H-cyclohepta[b]pyridin-9-yl] 4-(2-oxo-3H-imidazo[4,5-b]pyridin-1-yl)piperidine-1-carboxylate]
>=20.0% decrease in migraines per month, number of subjects (Enrollment Group (2-8)): 353 | >=20.0% decrease in migraines per month, percent of subjects (Enrollment Group (2-8)): 35.2% | >=25.0% decrease in migraines per month, number of subjects (Enrollment Group (2-8)): 308 | >=25.0% decrease in migraines per month, percent of subjects (Enrollment Group (2-8)): 30.7% | >=30.0% decrease in migraines per month, number of subjects (Enrollment Group (2-8)): 268 | >=30.0% decrease in migraines per month, percent of subjects (Enrollment Group (2-8)): 26.7% | >=35.0% decrease in migraines per month, number of subjects (Enrollment Group (2-8)): 224 | >=35.0% decrease in migraines per month, percent of subjects (Enrollment Group (2-8)): 22.3% | >=40.0% decrease in migraines per month, number of subjects (Enrollment Group (2-8)): 181 | >=40.0% decrease in migraines per month, percent of subjects (Enrollment Group (2-8)): 18.0% | >=45.0% decrease in migraines per month, number of subjects (Enrollment Group (2-8)): 144 | >=45.0% decrease in migraines per month, percent of subjects (Enrollment Group (2-8)): 14.3% | >=50.0% decrease in migraines per month, number of subjects (Enrollment Group (2-8)): 113 | >=50.0% decrease in migraines per month, percent of subjects (Enrollment Group (2-8)): 11.3% | >=20.0% decrease in migraines per month, number of subjects (Enrollment Group (4-14), n 269): 159 | >=20.0% decrease in migraines per month, percent of subjects (Enrollment Group (4-14), n 269): 59.1% | >=25.0% decrease in migraines per month, number of subjects (Enrollment Group (4-14), n 269): 144 | >=25.0% decrease in migraines per month, percent of subjects (Enrollment Group (4-14), n 269): 53.5% | >=30.0% decrease in migraines per month, number of subjects (Enrollment Group (4-14), n 269): 130 | >=30.0% decrease in migraines per month, percent of subjects (Enrollment Group (4-14), n 269): 48.3% | >=35.0% decrease in migraines per month, number of subjects (Enrollment Group (4-14), n 269): 117 | >=35.0% decrease in migraines per month, percent of subjects (Enrollment Group (4-14), n 269): 43.5% | >=40.0% decrease in migraines per month, number of subjects (Enrollment Group (4-14), n 269): 100 | >=40.0% decrease in migraines per month, percent of subjects (Enrollment Group (4-14), n 269): 37.2% | >=45.0% decrease in migraines per month, number of subjects (Enrollment Group (4-14), n 269): 83 | >=45.0% decrease in migraines per month, percent of subjects (Enrollment Group (4-14), n 269): 30.9% | >=50.0% decrease in migraines per month, number of subjects (Enrollment Group (4-14), n 269): 67 | >=50.0% decrease in migraines per month, percent of subjects (Enrollment Group (4-14), n 269): 24.9% | >=20.0% decrease in migraines per month, number of subjects (Enrollment Group (9-14), n 458): 171 | >=20.0% decrease in migraines per month, percent of subjects (Enrollment Group (9-14), n 458): 37.3% | >=25.0% decrease in migraines per month, number of subjects (Enrollment Group (9-14), n 458): 150 | >=25.0% decrease in migraines per month, percent of subjects (Enrollment Group (9-14), n 458): 32.8% | >=30.0% decrease in migraines per month, number of subjects (Enrollment Group (9-14), n 458): 125 | >=30.0% decrease in migraines per month, percent of subjects (Enrollment Group (9-14), n 458): 27.3% | >=35.0% decrease in migraines per month, number of subjects (Enrollment Group (9-14), n 458): 101 | >=35.0% decrease in migraines per month, percent of subjects (Enrollment Group (9-14), n 458): 22.1% | >=40.0% decrease in migraines per month, number of subjects (Enrollment Group (9-14), n 458): 81 | >=40.0% decrease in migraines per month, percent of subjects (Enrollment Group (9-14), n 458): 17.7% | >=45.0% decrease in migraines per month, number of subjects (Enrollment Group (9-14), n 458): 60 | >=45.0% decrease in migraines per month, percent of subjects (Enrollment Group (9-14), n 458): 13.1% | >=50.0% decrease in migraines per month, number of subjects (Enrollment Group (9-14), n 458): 46 | >=50.0% decrease in migraines per month, percent of subjects (Enrollment Group (9-14), n 458): 10.0% | >=20.0% decrease (reduction in headache days per month of at least 20%), number of subjects (Overall, of 1731 subjects): 683 | >=20.0% decrease (reduction in headache days per month of at least 20%), percent of subjects (Overall, of 1731 subjects): 39.5% | >=25.0% decrease (reduction in headache days per month of at least 25%), number of subjects (Overall, of 1731 subjects): 602 | >=25.0% decrease (reduction in headache days per month of at least 25%), percent of subjects (Overall, of 1731 subjects): 34.8% | >=30.0% decrease (reduction in headache days per month of at least 30%), number of subjects (Overall, of 1731 subjects): 523 | >=30.0% decrease (reduction in headache days per month of at least 30%), percent of subjects (Overall, of 1731 subjects): 30.2% | >=35.0% decrease (reduction in headache days per month of at least 35%), number of subjects (Overall, of 1731 subjects): 442 | >=35.0% decrease (reduction in headache days per month of at least 35%), percent of subjects (Overall, of 1731 subjects): 25.5% | >=40.0% decrease (reduction in headache days per month of at least 40%), number of subjects (Overall, of 1731 subjects): 362 | >=40.0% decrease (reduction in headache days per month of at least 40%), percent of subjects (Overall, of 1731 subjects): 20.9% | >=45.0% decrease (reduction in headache days per month of at least 45%), number of subjects (Overall, of 1731 subjects): 287 | >=45.0% decrease (reduction in headache days per month of at least 45%), percent of subjects (Overall, of 1731 subjects): 16.6% | >=50.0% decrease (reduction in headache days per month of at least 50%), number of subjects (Overall, of 1731 subjects): 226 | >=50.0% decrease (reduction in headache days per month of at least 50%), percent of subjects (Overall, of 1731 subjects): 13.1% | headache days per month, treatment phase versus observation phase (Study 201): fewer headache days per month | Hy's Law cases (Study 201 interim analysis): no Hy's Law cases | liver cases assessed as probably related to study drug (Study 201 interim analysis): no liver cases | incidence of serum ALT or AST >3×ULN (Study 201 interim analysis, 75 mg up to once daily): 1.0% | liver safety signal (Study 201 interim, including near-daily dosing (≥15 doses/month)): no liver safety signal detected
